≈ marks a conversion by molar mass, not a printed value.
Tests used:
Aspergillus flavus = experiment: Antifungal activity against Aspergillus flavus at 200 ug/ml after 7 days; format: functional; settings: 168 h
[1] = Cytotoxicity against Artemia salina leach eggs; settings: Egg, read-out: LD50 (the source's name)
Trichophyton longifusum = experiment: Antifungal activity against Trichophyton longifusum at 200 ug/ml after 7 days; format: functional; settings: 168 h
Shigella flexneri = experiment: Antibacterial activity against Shigella flexneri at 50 ug/ml after 24 hrs by agar-well diffusion assay; format: functional; settings: read-out: IZ
Candida albicans = experiment: Antifungal activity against Candida albicans at 200 ug/ml after 7 days; format: functional; settings: 168 h
Microsporum canis = experiment: Antifungal activity against Microsporum canis at 200 ug/ml after 7 days; format: functional; settings: 168 h
Pseudomonas aeruginosa = experiment: Antibacterial activity against Pseudomonas aeruginosa at 50 ug/ml after 24 hrs by agar-well diffusion assay; format: functional; settings: read-out: IZ
Bacillus subtilis = experiment: Antibacterial activity against Bacillus subtilis at 50 ug/ml after 24 hrs by agar-well diffusion assay; format: functional; settings: read-out: IZ
Escherichia coli = experiment: Antibacterial activity against Escherichia coli at 50 ug/ml after 24 hrs by agar-well diffusion assay; format: functional; settings: read-out: IZ
Staphylococcus aureus = experiment: Antibacterial activity against Staphylococcus aureus at 50 ug/ml after 24 hrs by agar-well diffusion assay; format: functional; settings: read-out: IZ
Salmonella enterica = experiment: Antibacterial activity against Salmonella typhi at 50 ug/ml after 24 hrs by agar-well diffusion assay; format: functional, Salmonella enterica subsp. enterica serovar Typhi; settings: read-out: IZ
Nakaseomyces glabratus = experiment: Antifungal activity against Candida glabrata at 200 ug/ml after 7 days; format: functional; settings: 168 h
Fusarium solani = experiment: Antifungal activity against Fusarium solani at 200 ug/ml after 7 days; format: functional; settings: 168 h

O=S(=O)(Nc1ncccn1)c1ccc(/N=C/c2cc(Br)ccc2O)cc1
inhibition at 200 µg/mL (Aspergillus flavus): 78%
LC50 [1]: > 3.16 mM
inhibition at 200 µg/mL (Trichophyton longifusum): 81%
zone of inhibition at 50 µg/mL (Shigella flexneri): 8 mm
inhibition at 200 µg/mL (Candida albicans): 34%
inhibition at 200 µg/mL (Microsporum canis): 0%
zone of inhibition at 50 µg/mL (Pseudomonas aeruginosa): 12 mm
zone of inhibition at 50 µg/mL (Bacillus subtilis): 15 mm
zone of inhibition at 50 µg/mL (Escherichia coli): 17 mm
zone of inhibition at 50 µg/mL (Staphylococcus aureus): 16 mm
zone of inhibition at 50 µg/mL (Salmonella enterica): 13 mm
inhibition at 200 µg/mL (Nakaseomyces glabratus): 80%
inhibition at 200 µg/mL (Fusarium solani): 48%

Cc1cc(C)nc(NS(=O)(=O)c2ccc(/N=C/c3cc(Br)ccc3O)cc2)n1
inhibition at 200 µg/mL (Aspergillus flavus): 38%
LC50 [1]: > 3.16 mM
inhibition at 200 µg/mL (Trichophyton longifusum): 80%
zone of inhibition at 50 µg/mL (Shigella flexneri): 6 mm
inhibition at 200 µg/mL (Candida albicans): 0%
inhibition at 200 µg/mL (Microsporum canis): 73%
zone of inhibition at 50 µg/mL (Pseudomonas aeruginosa): 13 mm
zone of inhibition at 50 µg/mL (Bacillus subtilis): 15 mm
zone of inhibition at 50 µg/mL (Escherichia coli): 18 mm
zone of inhibition at 50 µg/mL (Staphylococcus aureus): 17 mm
zone of inhibition at 50 µg/mL (Salmonella enterica): 11 mm
inhibition at 200 µg/mL (Nakaseomyces glabratus): 0%
inhibition at 200 µg/mL (Fusarium solani): 20%

C[C@@H]1[C@H](O)[C@@H](C)/C=C/C=C/C=C/C=C/C=C/C=C/C=C/[C@H](O[C@@H]2O[C@H](C)[C@@H](O)[C@H](N)[C@@H]2O)C[C@@H]2O[C@](O)(C[C@@H](O)C[C@@H](O)[C@H](O)CC[C@@H](O)C[C@@H](O)CC(=O)O[C@H]1C)C[C@H](O)[C@H]2C(=O)O [AMPHOTERICIN B]
MIC (Aspergillus flavus): 20 µg/mL (≈ 21.6 µM)

C[C@@H](O)[C@H]1C(=O)N2C(C(=O)O)=C(SCCNC=N)C[C@H]12 [IMIPENEM ANHYDROUS]
zone of inhibition at 50 µg/mL (Shigella flexneri): 20 mm
zone of inhibition at 50 µg/mL (Pseudomonas aeruginosa): 24 mm
zone of inhibition at 50 µg/mL (Bacillus subtilis): 26 mm
zone of inhibition at 50 µg/mL (Escherichia coli): 24 mm
zone of inhibition at 50 µg/mL (Staphylococcus aureus): 26 mm
zone of inhibition at 50 µg/mL (Salmonella enterica): 25 mm

Clc1ccc(COC(Cn2ccnc2)c2ccc(Cl)cc2Cl)c(Cl)c1 (stereo not drawn) [MICONAZOLE]
MIC (Trichophyton longifusum): 70 µg/mL (≈ 168 µM)
MIC (Candida albicans): 111 µg/mL (≈ 266 µM)
MIC (Microsporum canis): 98.4 µg/mL (≈ 236 µM)
MIC (Nakaseomyces glabratus): 73.2 µg/mL (≈ 176 µM)
MIC (Fusarium solani): 111 µg/mL (≈ 266 µM)
